Measured values from article PMC4791841, “Nanomolar Inhibitors of Trypanosoma brucei RNA Triphosphatase” (mBio, 2016).
Like-named read-outs stand apart in the source and are kept apart here.

Experiments:
SceCet1 = target: T1, SceCet1 (Saccharomyces cerevisiae, UniProt O13297); assay: TLC assay for 32Pi release from [γ-32P]ATP, SceCet1; format: biochemical; settings: for IC50/IC50 TbCet1, SceCet1: ratio in parentheses
T1 construct: C-terminal catalytic domain (aa 241 to 539) of S. cerevisiae RTPase (SceCet1); made in house; host or cells: Escherichia coli

procyclic T. brucei = assay: cell proliferation of cultured procyclic T. brucei; format: cell-based, Trypanosoma brucei; settings: 10 µM; preliminary studies, data not shown
CthTTM [1] = target: T2, CthTTM (Acetivibrio thermocellus, UniProt A3DIJ8); assay: TLC assay for 32Pi release from [γ-32P]ATP, CthTTM; format: biochemical, Clostridium thermocellum; settings: for IC50/IC50 TbCet1, CthTTM: ratio in parentheses
T2 sequence (A3DIJ8 1-156): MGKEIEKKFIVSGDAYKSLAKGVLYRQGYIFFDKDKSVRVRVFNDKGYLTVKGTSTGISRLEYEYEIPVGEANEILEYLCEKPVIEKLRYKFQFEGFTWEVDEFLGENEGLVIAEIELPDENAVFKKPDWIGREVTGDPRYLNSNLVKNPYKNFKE

MimiCE = target: T3, MimiCE (Acanthamoeba polyphaga mimivirus, UniProt Q5UQX1); assay: biochemical; format: biochemical; settings: for IC50/IC50 TbCet1, MimiCE: ratio in parentheses;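 for all read-outs here: mimivirus capping enzyme triphosphatase ATPase reaction, radiolabeled ATP hydrolysis to Pi quantified by TLC after 10 min, normalized to no-inhibitor control with 5% DMSO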
T3 construct: the N-terminal RTPase domain (amino acids [aa] 1 to 237) of mimivirus capping enzyme (MimiCE); HisSmt3 (N, cleaved yes); made in house; host or cells: Escherichia coli

TbCet1 [2] = target: T4, TbCet1 (Trypanosoma brucei brucei, UniProt Q582T2); assay: TLC assay for 32Pi release from [γ-32P]ATP, TbCet1; settings: 2.2 nM TbCet1, 0.2 mM ATP, 2 mM Mn2+, 10 min 37°C
T4 sequence (Q582T2 1-253): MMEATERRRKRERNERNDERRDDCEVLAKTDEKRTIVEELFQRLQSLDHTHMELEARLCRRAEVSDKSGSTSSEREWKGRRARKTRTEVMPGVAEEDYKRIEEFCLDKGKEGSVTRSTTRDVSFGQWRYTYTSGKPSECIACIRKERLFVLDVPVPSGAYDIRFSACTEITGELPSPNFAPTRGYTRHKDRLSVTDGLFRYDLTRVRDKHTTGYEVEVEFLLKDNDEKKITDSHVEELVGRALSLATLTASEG

TbCet1 [3] = target: T4, TbCet1; assay: colorimetric malachite green HTS assay of Pi release from ATP by TbCet1
Lef4 = target: T5, Lef4 (Autographa californica nuclear polyhedrosis virus, UniProt P41477); assay: TLC assay for 32Pi release from [γ-32P]ATP, Lef4; format: biochemical, Autographa californica nucleopolyhedrovirus (AcNPV); settings: for IC50/IC50 TbCet1, Lef4: ratio in parentheses;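 for all read-outs here: Lef4 RNA triphosphatase cleaving radiolabelled ATP over 10 min at 37°C, hydrolysis set relative to inhibitor-free 5% DMSO controls, comparisons made against TbCet1 tested the same way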
T5 construct: the N-terminal RTPase domain (aa 1 to 236) of AcNPV Lef4 capping enzyme; HisSmt3 (N, cleaved yes); made in house; host or cells: Escherichia coli

[4] = test system: Trypanosoma cruzi amastigotes; set-up: method as in PMID 25880257; settings: cited from earlier work
Leishmania amazonensis = test system: Leishmania amazonensis; set-up: method as in PMID 25880257; settings: cited from earlier work
CthTTM [5] = assay: TLC assay for 32Pi release from [γ-32P]ATP, CthTTM; format: biochemical, Clostridium thermocellum
TbCet1 [6] = target: T4, TbCet1; set-up: Recombinant full-length T. brucei RTPase TbCet1; HisSmt3 (N, cleaved yes); made in house; host or cells: Escherichia coli; method as in PMID 14525979; settings: ATP substrate Km 25 µM; read-out: Ki, competitive inhibitor of TbCet1; cited from earlier work
[7] = 500 nM CthTTM, 37°C, read-out: IC50 CthTTM
[8] = 7 nM MimiCE, 37°C, read-out: IC50 MimiCE
[9] = 50 nM Lef4, 37°C, read-out: IC50 Lef4
[10] = read-out: IC50 TbCet1 by 32P assay
[11] = read-out: IC50 by HTS assay, colorimetric phosphate release from ATP, Mn2+

T1 sequence (O13297 241-539): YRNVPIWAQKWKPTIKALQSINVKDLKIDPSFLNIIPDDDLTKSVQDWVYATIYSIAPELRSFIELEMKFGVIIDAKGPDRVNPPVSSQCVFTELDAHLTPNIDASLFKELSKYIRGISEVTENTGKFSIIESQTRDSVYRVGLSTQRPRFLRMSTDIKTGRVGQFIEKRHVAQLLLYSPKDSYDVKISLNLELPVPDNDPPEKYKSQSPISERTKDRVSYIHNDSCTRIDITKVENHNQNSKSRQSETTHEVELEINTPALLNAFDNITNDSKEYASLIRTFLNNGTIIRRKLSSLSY
T5 sequence (P41477 1-236): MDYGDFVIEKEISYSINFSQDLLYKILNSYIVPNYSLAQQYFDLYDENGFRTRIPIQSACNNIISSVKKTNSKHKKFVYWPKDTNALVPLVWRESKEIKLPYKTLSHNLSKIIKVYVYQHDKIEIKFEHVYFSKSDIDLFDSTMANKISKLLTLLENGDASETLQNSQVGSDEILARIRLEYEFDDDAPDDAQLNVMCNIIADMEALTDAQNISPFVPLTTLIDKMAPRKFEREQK
T3 sequence (Q5UQX1 1-237): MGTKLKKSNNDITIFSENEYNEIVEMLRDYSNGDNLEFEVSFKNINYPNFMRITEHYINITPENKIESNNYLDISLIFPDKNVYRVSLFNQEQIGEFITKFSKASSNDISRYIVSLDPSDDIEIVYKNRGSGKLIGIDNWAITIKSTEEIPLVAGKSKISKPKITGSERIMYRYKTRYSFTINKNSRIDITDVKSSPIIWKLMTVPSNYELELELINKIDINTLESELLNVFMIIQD

| Compound | IC50 (SceCet1) [µM] | IC50/IC50 TbCet1, SceCet1 (SceCet1) | IC50/IC50 TbCet1, CthTTM (CthTTM [1]) | IC50 (MimiCE; [8]) [µM] | IC50/IC50 TbCet1, MimiCE (MimiCE) | IC50 (TbCet1 [2]; IC50 TbCet1 by 32P assay) [nM] | IC50 (TbCet1 [3]) [nM] | IC50/IC50 TbCet1, Lef4 (Lef4) | IC50 (Lef4) [µM] | also measured |
| --- | --- | --- | --- | --- | --- | --- | --- | --- | --- | --- |
| O=C(/C=C/c1ccc(O)c(O)c1)O[C@@H]1C[C@](OC(=O)/C=C/c2ccc(O)c(O)c2)(C(=O)O)C[C@@H](OC(=O)/C=C/c2ccc(O)c(O)c2)[C@H]1OC(=O)/C=C/c1ccc(O)c(O)c1 [Compound 1A, 1,3,4,5-O-tetracaffeoylquinic acid] | 7.1 | 546 | 846 | 1.4 | 108 | 13 | 20 | 438 | – | fold lower potency against SceCet1 than against TbCet1 (SceCet1): 550 fold; effect on cell proliferation (procyclic T. brucei): no effect; fold lower potency against CthTTM than against TbCet1 (CthTTM [1]): 850 fold; IC50 (CthTTM [1]; [7]): 11 µM; fold lower potency against MimiCE than against TbCet1 (MimiCE): 110 fold; fold lower potency against Lef4 than against TbCet1 (Lef4): 440 fold; IC50 (Lef4; [9]): 5.7 µM |
| O=C(/C=C/c1ccc(O)c(O)c1)O[C@@H]1CC(O)(C(=O)O)C[C@@H](OC(=O)/C=C/c2ccc(O)c(O)c2)C1O (stereo partly shown) [Compound 1B, 3,5-O-dicaffeoylquinic acid] | – | – | – | – | – | – | – | – | – | activity against Trypanosoma cruzi amastigotes [4]: inactive; IC50 (TbCet1 [2]; [10]): 70 nM; IC50 (TbCet1 [3]; [11]): 40 nM; activity against Leishmania amazonensis (Leishmania amazonensis): inactive |
| O=C(OC[C@H]1O[C@@H](OC(=O)c2cc(O)c(O)c(O)c2)[C@H](OC(=O)c2cc(O)c(O)c(O)c2)[C@@H](OC(=O)c2cc(O)c(O)c(O)c2)[C@@H]1OC(=O)c1cc(O)c(O)c(O)c1)c1cc(O)c(O)c(O)c1 [Compound 2A, pentagalloylglucose] | – | – | – | – | – | 46 | 40 | – | 59 | IC50 (SceCet1; read-out: IC50 SceCet1): 3.2 µM; IC50 (MimiCE): 5.1 µM |
| O=C(CCO[C@@H]1O[C@H](CO)[C@@H](O)[C@H](O)[C@H]1O)c1ccc(O)cc1 [Compound 2B, 3-O-(4-hydroxyphenylpropanone)-1-glucopyranoside] | – | 62 | 44 | – | 182 | – | – | 227 | – | fold lower potency against SceCet1 than against TbCet1 (SceCet1): 62 fold; IC50 (SceCet1; read-out: IC50 SceCet1, 25 nM SceCet1, 30°C): 41 µM; fold lower potency against CthTTM than against TbCet1 (CthTTM [1]): 44 fold; IC50 (CthTTM [1]; read-out: IC50 CthTTM, 500 nM CthTTM, 37°C): 29 µM; fold lower potency against MimiCE than against TbCet1 (MimiCE): 180 fold; IC50 (MimiCE; read-out: IC50 MimiCE, 7 nM MimiCE, 37°C): 120 µM; IC50 (TbCet1 [2]; [10]): 660 nM; IC50 (TbCet1 [3]; [11]): 1100 nM; IC50 (Lef4; [9]): 150 µM |
| O=C(/C=C/c1ccc(O)c(O)c1)O[C@H](Cc1ccc(O)c(O)c1)C(=O)O [Compound 3A, rosmarinic acid] | – | – | – | – | – | 120 | 50 | – | – | – |
| O=C(O)C1OC(Oc2c(-c3ccc(O)c(O)c3)oc3cc(O)cc(O)c3c2=O)C(O)C(O)C1O (stereo not shown) [Compound 4A, miquelianin] | 43 | 239 | 133 | 19 | 106 | 180 | 180 | 161 | 29 | IC50 (CthTTM [1]): 24 µM |
| O=c1c(O)c(-c2cc(O)c(O)c(O)c2)oc2cc(O)cc(O)c12 [Compound 4B, myricetin] | – | – | – | – | – | 360 | 230 | – | – | – |
| Oc1cc(O)c2c(c1)O[C@H](c1ccc(O)c(O)c1)[C@H](O)C2 [Compound 4C, epicatechin] | 8.7 | 35 | 104 | 10 | 40 | 250 | 260 | 136 | 34 | IC50 (CthTTM [1]; [7]): 26 µM |
| O=C(CCO)c1ccc(O)cc1 [Compound 5, 3-hydroxy-1-(4-hydroxyphenyl)propan-1-one] | > 500 | – | 14 | 84 | 131 | 640 | 630 | 250 | 160 | activity against SceCet1 (in words) (SceCet1): no effect; IC50 (CthTTM [1]; [7]): 9.2 µM |
| O=C(C=Cc1ccccc1)OC1C=C(C(=O)O)CC(OC(=O)C=Cc2ccccc2)C1OC(=O)C=Cc1ccccc1 (stereo not shown) [Compound 6B, 3,4,5-tricinnamoylshikimic acid] | – | – | – | 19 | 13 | – | – | 7 | – | activity against SceCet1 (in words) (SceCet1): inactive; IC50 (SceCet1; 25 nM SceCet1, 30°C, read-out: IC50 SceCet1): > 500 µM; fold lower potency against CthTTM than against TbCet1 (CthTTM [5]): 100 fold; IC50 (CthTTM [5]; 500 nM CthTTM, 37°C): 150 µM; IC50/IC50 TbCet1, CthTTM (CthTTM [5]; ratio in parentheses): 100; IC50 (TbCet1 [2]; [10]): 1500 nM; IC50 (Lef4; [9]): 10 µM |
| O=P(O)(O)OP(=O)(O)OP(=O)(O)O [Tripolyphosphate] | – | – | – | – | – | – | – | – | – | Ki (TbCet1 [6]): 1400 nM |
